Reference: US20260199224A1, “Compositions comprising Sanguisorba officinalis root extract and uses thereof” (Clariant International Ltd, priority 2022, published 2026)

Key:
[1] = system: bovine hyaluronidase, Type IS; experiment: Anti-hyaluronidase activity, intact hyaluronic acid by BSA turbidity at 600 nm; assay type: biochemical; settings: 15 μM
Protocol: FDTA-I and FDTA-II were purified from stimulated roots of Sanguisorba officinalis as described in example 10. In addition, ziyuglycoside I was also included in the test. For the comparison, SORE was prepared as presented in example 1.
Hyaluronidase catalyzes the degradation reaction of hyaluronic acid (HA). The test is based on the quantification of intact HA content in the presence/absence of an extract of interest and/or compounds of interest. The degradation rate of HA content is proportional to enzymatic activity of hyaluronidase and inversely proportional to the inhibition power of the extract.
The reaction mixture was prepared as follows: 37.5 μL of 20 mM PHB buffer pH 7, 187.5 μL of hyaluronidase solution (bovine hyaluronidase, Type IS, Sigma) 0.02 mg/mL, and 25 μL of sample (SORE or pure FDTA-I and FDTA-II to be tested). In the case of table 13, the pure FDTA-I and FDTA-II as well as SORE were in pure propane-1,3-diol. In the case of table 14, the pure FDTA-I and FDTA-II were in 100% ethanol. The mixture was incubated for 10 minutes at room temperature and then 250 μL of HA substrate (0.3 mg/mL in phosphate buffer) are added to initiate the reaction. Incubation is done in a Thermomixer at 37° C., under agitation (450 rpm). The reaction was monitored for 60 minutes with a sampling of the reaction mix (50 μL) every 15 minutes. These samples were inserted into the wells of a microplate containing 200 μL of BSA solution 0.1% pH 3.75 and incubated in BSA for 10 minutes. The HA formed aggregates with the BSA solution which precipitates. Thus, the amount of precipitating BSA was proportional to the optical density at 600 nm which allows to monitor the enzymatic reaction. The microplate was finally inserted into the spectrophotometer and the optical density was measured at this wavelength.

[2] = system: Clostridium histolyticum collagenase (type IA); experiment: Anti-collagenase activity, FALGPA degradation followed by UHPLC; assay type: biochemical; settings: 25 μM; for Residual activity, ActR (%) of collagenase: 30 minutes
Protocol: FDTA-I and FDTA-II were purified from stimulated roots of Sanguisorba officinalis, where the plant has been stimulated by using a nutrient medium without nitrogen (N/P/K 0/15/40) for 1 to 3 weeks. 10 g of dried and grinded (1 mm) roots were macerated in 100 ml of ethyl acetate for 24 h at 50° C. The purified fraction of FDTA-I and FDTA-II was obtained by preparative HPLC and characterized by mass spectrometry. Ferulic acid and TA have been purchased commercially. In addition, it was also included in the test ziyuglycoside I, an active compound isolated from Sanguisorba officinalis roots known to hold various activities including increased expression of type I collagen. For the comparison, SORE was obtained as presented in example 1. The anti-collagenase inhibiting activity was measured by following the kinetics of collagenase-driven degradation of collagenase substrate: FALGPA (N-[3-(2-Furyl) acryloyl]-Leu-Gly-Pro-Ala) into FAL (N-[3-(2-Furyl) acryloyl]-Leu) and Gly-Pro-Ala.
Briefly, a volume of 100 μL of 1.5 mM solution of FALGPA in 50 mM tricine buffer with 10 mM calcium chloride and 400 mM sodium chloride, pH 7.5 (Bachem, 4006713.0025) was mixed with a volume of 10 μL of test sample or pure solvent of the test sample (positive control), followed by a volume of 10 μL of 0.05 mg/ml of Clostridium histolyticum collagenase (type IA, Sigma-Aldrich, C9891). To determine the rate of enzymatic conversion, the content of FAL was quantified at the beginning of the reaction and 30 minutes after its initialization by stopping the enzymatic conversion of FALGPA by EDTA. To quench the enzymatic conversion, a volume of 50 μL of the test sample was mixed with a volume of 50 μL of EDTA (0.2 M in water). The content of FAL in the samples was then quantified by UHPLC method optimized to separate FALGPA and FAL. The analysis was conducted using Kinetex Biphenyl reverse phase column (150 mm×2.1 mm, 2.6 μm, Phenomenex, Torrance, USA), maintained at 40° C. The mobile phase was composed of water containing 0.1% vol. of formic acid (A) and pure acetonitrile (B), delivered at 0.5 ml/min with the gradient of B phase as follows: 5-41% (0-9 min); 41-90% (9-9.05 min); hold at 90% (9.05-11.50 min); 90-5% (11.50-11.55 min), hold at 5% (11.55-14.50 min). Sample injection volume was 5 μL and FALGPA/FAL detection at 338 nm. Residual activity and the inhibition degree of collagenase in the presence of test sample X was then calculated using the following equation: […]
ActR %—residual activity; Inh %—inhibition degree; AUC—peak area of FAL; EchX tested sample; BL—blank.

[3] = mouse, in vivo; cited from earlier work
[4] = sample in 100% ethanol (table 14)
[5] = sample in pure propane-1,3-diol (table 13)

Compound: COc1cc(/C=C/C(=O)OC2C(O)CC3(C)C(CCC4(C)C3CC=C3C5C(C(=O)O)(CCC(C)C5(C)O)CCC34C)C2(C)C)ccc1O (centres unmarked) [FDTA-I, feruloylated derivative of tormentic acid]
- effect on hyaluronidase, in words ([1]; comment on table 13): acted as a hyaluronidase inhibitor
- effect on hyaluronidase, in words ([1]; comment on table 14): acted as hyaluronidase inhibitors
- Residual activity of hyaluronidase (%) [1, 4]: 69%
- Residual activity of hyaluronidase (%) [1, 5]: 9.5%
- inhibition of collagenase IA (Inh %) [2]: 76%
- Residual activity, ActR (%) of collagenase [2]: 24%

Compound: COc1cc(/C=C/C(=O)OC2C(O)CC3(C)C(CCC4(C)C3CC=C3C5C(C)C(C)CCC5(C(=O)O)CCC34C)C2(C)C)ccc1O (centres unmarked) [FDTA-II, feruloylated derivative of deoxy-tormentic acid]
- effect on hyaluronidase, in words ([1]; comment on table 14): acted as hyaluronidase inhibitors
- Residual activity of hyaluronidase (%) [1, 4]: 89%
- inhibition of collagenase IA (Inh %) [2]: 36%
- Residual activity, ActR (%) of collagenase [2]: 64%

Compound: COc1cc(/C=C/C(=O)O)ccc1O [Ferulic acid, ferulic acid]
- effect on hyaluronidase, in words ([1]; comment on table 13): did not have any effect
- Residual activity of hyaluronidase (%) [1, 5]: 103%
- inhibition of collagenase IA (Inh %) [2]: do not have any effect
- Residual activity, ActR (%) of collagenase [2]: 96%

Compound: C[C@@H]1CC[C@]2(C(=O)O)CC[C@]3(C)C(=CC[C@@H]4[C@@]5(C)C[C@@H](O)[C@H](O)C(C)(C)[C@@H]5CC[C@]43C)[C@@H]2[C@]1(C)O [TA, tormentic acid]
- effect on hyaluronidase, in words ([1]; comment on table 13): did not have any effect
- Residual activity of hyaluronidase (%) [1, 5]: 98%
- inhibition of collagenase IA (Inh %) [2]: do not have any effect
- Residual activity, ActR (%) of collagenase [2]: 98%

Compound: C[C@@H]1CC[C@]2(C(=O)O[C@@H]3O[C@H](CO)[C@@H](O)[C@H](O)[C@H]3O)CC[C@]3(C)C(=CC[C@@H]4[C@@]5(C)CC[C@H](O[C@@H]6OC[C@H](O)[C@H](O)[C@H]6O)C(C)(C)[C@@H]5CC[C@]43C)[C@@H]2[C@]1(C)O [Ziyuglycoside I]
- effect on hyaluronidase, in words ([1]; comment on table 14): did not have any effect
- Residual activity of hyaluronidase (%) [1, 4]: 107%
- inhibition of collagenase IA (Inh %) [2]: did not have any enzymatic inhibitory effect
- Residual activity, ActR (%) of collagenase [2]: 106%

Compound: Oryzanol
- toxicity in mice [3]: did not demonstrate any toxicity
